Several values for one entry are separate records, joined by “and”; a condition that tells them apart may be missing. Identical values can stand only once. Values belong to the compound of their own block, whether it stands above or below them.
Key:
[1] = Phosphate binding capacity, 3.2 mmol compound in 25 ml 20 mmol l^-1 phosphate buffer (Example 1)
Procedure: In Table 1, the values indicate respective percentage phosphate binding capacity at each of pH3, pH7 and pH8, n indicating the number of trials made for each compound.
The phosphate binding capacity was measured by mixing 3.2 mmol of the compound with 25 ml of 20 mmol l^−1 phosphate buffer for 30 min at 25° C. For all compounds except CT2000, which compounds were dry powders, the compounds were merely weighed and dosed. For CT2000, the slurry was dosed in an amount such as to give an equivalent of 1 g of a powder dried to constant weight at 40° C. Sodium phosphate and sodium hydrogen phosphate were mixed to provide respective phosphate solutions at pH3, 7 and 8 (HCl being added to provide pH3). […] The results are shown in Table 1, in which n refers to the number of observations and the values as the % of phosphate precipitated out of solution, calculated as follows:
where • x=mmol phosphate in solution after precipitation; and • y=mmol phosphate in solution without precipitation.

[2] = Measurement of phosphate binding M4: 1 g in 25 ml 40 mmol l^-1 phosphate buffer, pH 3-8 (Examples 3 and 4)
[3] = Body weight and faecal hydration of rats fed binder in diet; details: rat, in vivo
Procedure: Total faecal samples from each animal were mixed to ensure a homogeneity and duplicate one gram aliquots weighed. The percentage hydration of the stool was calculated following freeze drying to constant weight.
Following feeding with the modified diets for 7 days, animals were transferred to metabowls for collection of total 24 hour faecal and urine excretion.

[4] = rat, in vivo
[5] = Urine and faecal phosphate excretion in rats fed binder in diet; details: rat, in vivo
[6] = Phosphate binding capacity Method 2: as Method 1 but 20 mmol l^-1 phosphate buffer, increasing weight of compound
[7] = Phosphate binding in food, Method 3 (food slurry in 0.01 M HCl)
[8] = 3.2 mmol compound, 25 ml 20 mmol l^-1 phosphate buffer, 30 min, 25° C.

Compound: O=C([O-])[O-].[Ca+2] [CaCO3, calcium carbonate]
- percentage phosphate binding capacity, pH 3 [1]: 15.3 ± 0.5%
- percentage phosphate binding capacity, pH 7 [1]: 9.7 ± 1.8%
- percentage phosphate binding capacity, pH 8 [1]: 2.4 ± 1.8%
- increase in phosphate binding at pH 3 compared to pH 8 [2]: 5.9 fold
- Percentage phosphate binding at pH 3 ([2]; pH 3): 69% and 72%
- Percentage phosphate binding at pH 5 ([2]; pH 5): 63% and 70%
- Percentage phosphate binding at pH 7 ([2]; pH 7): 30% and 43%
- Percentage phosphate binding at pH 8 ([2]; pH 8): 8% and 16%
- mean weight gain [3]: 38-53 grams
- Serum aluminium [4]: 0.33 ± 0.05 µmol/L
- Serum calcium [4]: 2.93 ± 0.09 (n = 4)β mmol l^−1
- Serum iron [4]: 41.9 ± 10.8 (n = 4) mmol l^−1
- Urine aluminium [4]: 0.50 ± 0.21 µg
- Total faecal phosphate [5]: 213 ± 16 μmol g^−1 dry weight faeces
- Urine phosphate [5]: 857 ± 25 µmol

Compound: O.O.O=S(=O)([O-])[O-].[Ca+2] [CaSO4•2H2O, Calcium Sulphate Dihydrate]
- Percentage phosphate bound at pH 3 ([2]; pH 3): 0%
- Percentage phosphate bound at pH 5 ([2]; pH 5): 0%
- Percentage phosphate bound at pH 7 ([2]; pH 7): 57%
- Percentage phosphate bound at pH 8 ([2]; pH 8): 89%

- percentage phosphate binding capacity, pH 3 [1, 8]: 69.8 ± 7.5%
- percentage phosphate binding capacity, pH 7 [1, 8]: 57.8 ± 8.9%
- percentage phosphate binding capacity, pH 8 [1, 8]: 60.5 ± 1.5%
Compound: [Ce+3].[OH-].[OH-].[OH-] [Ce(OH)3]

Compound: [Mg+2].[OH-].[OH-] [Mg(OH)2, magnesium hydroxide]
- percentage phosphate binding capacity, pH 3 [1]: 61.1 ± 7.5%
- percentage phosphate binding capacity, pH 7 [1]: 45.7 ± 5.9%
- percentage phosphate binding capacity, pH 8 [1]: 12.5 ± 3.7%
- phosphate binding at pH 3, comparison [6]: best phosphate binder
- phosphate binding in food, comparison [7]: not the best when used in food
- increase in phosphate binding at pH 3 compared to pH 8 [2]: 3.7 fold
- Percentage phosphate binding at pH 3 ([2]; pH 3): 81% and 87%
- Percentage phosphate binding at pH 5 ([2]; pH 5): 82% and 80%
- Percentage phosphate binding at pH 7 ([2]; pH 7): 54% and 58%
- Percentage phosphate binding at pH 8 ([2]; pH 8): 17% and 28%
- faecal hydration compared to the controls [3]: none of the animal groups treated with Mg(OH)2, CT 100 or CTFeMg showed an increase in faecal hydration compared to the controls
- mean weight gain [3]: 38-53 grams
- Serum aluminium [4]: 0.35 ± 0.08 µmol/L
- Serum calcium [4]: 2.58 ± 0.05 (n = 3) mmol l^−1
- Serum iron [4]: 29.4 ± 7.9 (n = 3) mmol l^−1
- Urine aluminium [4]: 0.17 ± 0.07 µg
- urinary magnesium excretion, comparison between groups [4]: significantly higher than the control group or animals treated with any other binder
- Total faecal phosphate [5]: 183 ± 17 μmol g^−1 dry weight faeces
- Urine phosphate [5]: 65 ± 53 µmol

Compound: Al2Mg6(OH)16CO3.4H2O [CT100]
- faecal hydration compared to the controls [3]: none of the animal groups treated with Mg(OH)2, CT 100 or CTFeMg showed an increase in faecal hydration compared to the controls
- mean weight gain [3]: 38-53 grams

From patent US20140120180A1, “METAL COMPOUNDS MIXED OR SULPHATED, AS PHOSPHATE BINDERS” (CYTOCHROMA DEVELOPMENT INC., priority 1997, published 2014)
